# Columns and labels:
# [1] = system: Polygonum convolvulus; experiment: Post-emergence herbicidal effect; format: in vivo; settings: 1280 g/ha, visual rating after about 3 weeks
# Method: (§1) POLCO: Polygonum convolvulus SETVI: Setaria viridis 2. Post-Emergence Herbicidal Effect and Crop Plant Compatibility Seeds of monocotyledonous and dicotyledonous weed and crop plants are placed in sandy loam in wood-fiber pots, covered with soil and cultivated in a greenhouse under good growth conditions. 2 to 3 weeks after sowing, the test plants are treated at the one-leaf stage. The compounds according to the invention, formulated in the form of wettable powders (WP) or as emulsion concentrates (EC), are then sprayed as aqueous suspension or emulsion at a water application rate of 600 to 800 I/ha (converted) with the addition of 0.2% of wetting agent onto the green parts of the plants. After the test plants have been kept in the greenhouse under optimum growth conditions for about 3 weeks, the activity of the preparations is rated visually in comparison to untreated controls (herbicidal activity in percent (%): 100% activity=the plants have died, 0% activity=like control plants).
# [2] = system: Veronica persica; experiment: Pre-emergence herbicidal effect; format: in vivo; settings: 1280 g/ha, visual assessment after 3 weeks
# Text: (§2) 1. Pre-Emergence Herbicidal Effect and Crop Plant Compatibility Seeds of monocotyledonous and dicotyledonous weed plants and crop plants are placed in wood-fiber pots in sandy loam and covered with soil. The inventive compounds, formulated in the form of wettable powders (WP) or as emulsion concentrates (EC), are then applied to the surface of the covering soil as an aqueous suspension or emulsion at a water application rate of 600 to 800 I/ha (converted) with addition of 0.2% wetting agent. After the treatment, the pots are placed in a greenhouse and kept under good growth conditions for the test plants. The damage to the test plants is assessed visually after a test period of 3 weeks by comparison with untreated controls (herbicidal activity in percent (%): 100% action=the plants have died, 0% action=like control plants). STEME: Stellaria media VERPE: Veronica persica
# [3] = system: Stellaria media; experiment: Pre-emergence herbicidal effect; format: in vivo; settings: 1280 g/ha, visual assessment after 3 weeks
# Text: as §2
# [4] = logp (HCOOH), physicochemical characterization; settings: HCOOH
# [5] = system: Stellaria media; experiment: Post-emergence herbicidal effect; format: in vivo; settings: 1280 g/ha, visual rating after about 3 weeks
# Method: as §1, with “STEME: Stellaria media VERPE: Veronica persica” for “POLCO: Polygonum convolvulus SETVI: Setaria viridis”
# [6] = system: Viola tricolor; experiment: Post-emergence herbicidal effect; format: in vivo; settings: 1280 g/ha, visual rating after about 3 weeks
# Method: as §1, with “VIOTR: Viola tricolor” for “POLCO: Polygonum convolvulus SETVI: Setaria viridis”
# [7] = system: Amaranthus retroflexus; experiment: Post-emergence herbicidal effect; format: in vivo; settings: 1280 g/ha, visual rating after about 3 weeks
# Method: as §1, with “AMARE: Amaranthus retroflexus ECHCG: Echinochloa crus-galli” for “POLCO: Polygonum convolvulus SETVI: Setaria viridis”
# [8] = system: Veronica persica; experiment: Post-emergence herbicidal effect; format: in vivo; settings: 1280 g/ha, visual rating after about 3 weeks
# Method: as §1, with “STEME: Stellaria media VERPE: Veronica persica” for “POLCO: Polygonum convolvulus SETVI: Setaria viridis”
SMILES,herbicidal activity POLCO [1] [%],herbicidal activity VERPE [2] [%],herbicidal activity STEME [3] [%],logp (HCOOH) [4],herbicidal activity STEME [5] [%],herbicidal activity VIOTR [6] [%],herbicidal activity AMARE [7] [%],herbicidal activity VERPE [8] [%]
CCc1ccc2c(c1)C(Nc1cnc(S(C)(=O)=O)nc1)CCO2 (racemic) [compound 65],80,100,100,"wax-like; logp (HCOOH): 2.54; 1H-NMR (CDCl3, 400 MHZ, δ in ppm): 1.20 (t, 3H,",90,–,–,–
CCc1ccc2c(c1)C(Nc1cnc(S(C)(=O)=O)nc1C(=O)O)CCO2 (racemic) [compound 68],80,100,100,–,–,80,–,–
Cc1ccc2c(c1)[C@H](Nc1cnc(S(C)(=O)=O)nc1)[C@@H](C)C2 [compound 134],90,100,100,–,100,90,80,90

# From patent US9375002B2, “5-aminopyrimidine derivatives and use thereof for combating undesired plant growth” (BAYER INTELLECTUAL PROPERTY GMBH, priority 2012, dated 2016)
